According to patent US11311540B2, “Increasing expression of interferon regulated genes with combinations of histone deacetylase inhibitors and immunomodulatory drugs” (ACETYLON PHARMACEUTICALS, INC., priority 2016, dated 2022):

What was measured:
H929 cells = assay: Apoptosis by flow cytometry (Annexin V / propidium iodide); format: cell-based; conditions: 5 and 7 days, Compound A 2 μM, lenalidomide 2 μM, pomalidomide 1 μM
Experimental: Flow cytometry analysis was then used to measure the number of healthy and apoptotic cells under each treatment condition.
(§1) H929 (FIGS. 7A & 7B) or MM.1s (FIGS. 7C & 7D) myeloma cells were exposed to drug for 5 (FIGS. 7A & 7C) and 7 (FIGS. 7B & 7D) days, and apoptosis was assessed by flow cytometry by measuring Annexin V binding and cellular permeability to propidium iodide. The relative fraction of cells that were live, in early apoptosis, in late apoptosis, or dead was then determined.

MM.1s myeloma cells [1] = assay: as above; format: cell-based; conditions: 5 and 7 days, Compound A 2 μM, lenalidomide 2 μM, pomalidomide 1 μM
Experimental: as §1

H929 myeloma cells = assay: Cell cycle distribution by flow cytometry (propidium iodide); format: cell-based; conditions: 3 and 5 days, Compound A 2 μM, lenalidomide 2 μM, pomalidomide 1 μM
Experimental: (§2) H929 (FIGS. 6A & 6B) or MM.1s (FIGS. 6C & 6D) myeloma cells were exposed to drug for 3 (FIGS. 6A & 6C) and 5 (FIGS. 6B & 6D) days and cell cycle distribution was assessed by flow cytometry via incorporation of propidium iodide. The relative fraction of cells in each stage of the cell cycle (G0/G1, S, and G2/M) as well as the fraction of dead cells (Sub G1) was then estimated.

MM.1s myeloma cells [2] = assay: as above; format: cell-based; conditions: 3 and 5 days, Compound A 2 μM, lenalidomide 2 μM, pomalidomide 1 μM
Experimental: as §2

α-tubulin = assay: Acetylation of α-tubulin in H929 cells (immunoblot); format: cell-based
[3] = system: interferon regulated genes; assay: Gene Set Enrichment Analysis (GSEA) of microarray data; format: cell-based, human; conditions: single agent vs. DMSO at 48 hours (pomalidomide 1 μM; Compound A 4 μM)
Experimental: (§3) The data acquired from Example 7 was analyzed using two approaches: (1) Gene Set Enrichment Analysis (GSEA), and in the (2) Library of Integrated Network-based Cellular Signatures (LINCS) database.
(§4) The goal of the GSEA was to identify gene sets that are enriched in combination treatment over single agent treatment. […] Relevant gene sets were those that were enriched in both queries in the same direction (increased or decreased). For this analysis, the “hallmark gene sets” was chosen as the database, which comprises coherently expressed signatures derived by aggregating many molecular signatures database (MSigDB) gene sets to represent well-defined biological states or processes.

myc target genes = assay: as above; format: cell-based, human; conditions: single agent vs. DMSO at 48 hours (pomalidomide 1 μM; Compound A 4 μM)
Experimental: as §3, §4

XAF1 = XAF1 gene expression (microarray probes); format: cell-based, human; conditions: Compound A 2, 3, 4 μM, pomalidomide 1 μM; 24 hour and 48 hour
Description: (§5) The chip comprises a human gene expression array having more than 530,000 probes covering more than 36,000 transcripts and variants, which represent more than 20,000 genes mapped through RefSeq or via UniGene annotation. […] In the table, “A” indicates Compound A, and “Pom” indicates pomalidomide.
(§6) Each bar in each group of bars per treatment represents individual transcript probes for measuring gene expression level. […] Finally, there also appeared to be independent time components for each transcript.

CCL4 = CCL4 gene expression (microarray probes); format: cell-based, human; conditions: Compound A 2, 3, 4 μM, pomalidomide 1 μM; 24 hour and 48 hour
Description: as §5, §6

CASP1 = CASP1 gene expression (microarray probes); format: cell-based, human; conditions: Compound A 2, 3, 4 μM, pomalidomide 1 μM; 24 and 48 hours
Experimental: as §5
(§7) Finally, both effects were enhanced with time, though dose-dependence was less clear at 48 hours.

BIRC5 = BIRC5 (survivin) gene expression (microarray probes); format: cell-based, human; conditions: Compound A 2, 3, 4 μM, pomalidomide 1 μM; 24 and 48 hours
Experimental: as §5, §7

[4] = Phase I trials; cited from earlier work
preclinical models of MM = conditions: in vitro and in vivo; cited from earlier work
[5] = Body weight and tolerability in CB17-SCID mice; format: in vivo
Experimental: Mice carrying H929 tumor xenografts were treated with DMSO, Compound B (50 mg/kg IP QD), pomalidomide (1 mg/kg IP QD), or the combination of Compound B (50 mg/kg IP QD) and pomalidomide (1 mg/kg IP QD) daily for up to 42 days.

HDAC6 = target: T1, HDAC6 (Homo sapiens, UniProt Q9UBN7); assay: HDAC6 selectivity over other HDACs; format: biochemical
T1 sequence (Q9UBN7 1-1215): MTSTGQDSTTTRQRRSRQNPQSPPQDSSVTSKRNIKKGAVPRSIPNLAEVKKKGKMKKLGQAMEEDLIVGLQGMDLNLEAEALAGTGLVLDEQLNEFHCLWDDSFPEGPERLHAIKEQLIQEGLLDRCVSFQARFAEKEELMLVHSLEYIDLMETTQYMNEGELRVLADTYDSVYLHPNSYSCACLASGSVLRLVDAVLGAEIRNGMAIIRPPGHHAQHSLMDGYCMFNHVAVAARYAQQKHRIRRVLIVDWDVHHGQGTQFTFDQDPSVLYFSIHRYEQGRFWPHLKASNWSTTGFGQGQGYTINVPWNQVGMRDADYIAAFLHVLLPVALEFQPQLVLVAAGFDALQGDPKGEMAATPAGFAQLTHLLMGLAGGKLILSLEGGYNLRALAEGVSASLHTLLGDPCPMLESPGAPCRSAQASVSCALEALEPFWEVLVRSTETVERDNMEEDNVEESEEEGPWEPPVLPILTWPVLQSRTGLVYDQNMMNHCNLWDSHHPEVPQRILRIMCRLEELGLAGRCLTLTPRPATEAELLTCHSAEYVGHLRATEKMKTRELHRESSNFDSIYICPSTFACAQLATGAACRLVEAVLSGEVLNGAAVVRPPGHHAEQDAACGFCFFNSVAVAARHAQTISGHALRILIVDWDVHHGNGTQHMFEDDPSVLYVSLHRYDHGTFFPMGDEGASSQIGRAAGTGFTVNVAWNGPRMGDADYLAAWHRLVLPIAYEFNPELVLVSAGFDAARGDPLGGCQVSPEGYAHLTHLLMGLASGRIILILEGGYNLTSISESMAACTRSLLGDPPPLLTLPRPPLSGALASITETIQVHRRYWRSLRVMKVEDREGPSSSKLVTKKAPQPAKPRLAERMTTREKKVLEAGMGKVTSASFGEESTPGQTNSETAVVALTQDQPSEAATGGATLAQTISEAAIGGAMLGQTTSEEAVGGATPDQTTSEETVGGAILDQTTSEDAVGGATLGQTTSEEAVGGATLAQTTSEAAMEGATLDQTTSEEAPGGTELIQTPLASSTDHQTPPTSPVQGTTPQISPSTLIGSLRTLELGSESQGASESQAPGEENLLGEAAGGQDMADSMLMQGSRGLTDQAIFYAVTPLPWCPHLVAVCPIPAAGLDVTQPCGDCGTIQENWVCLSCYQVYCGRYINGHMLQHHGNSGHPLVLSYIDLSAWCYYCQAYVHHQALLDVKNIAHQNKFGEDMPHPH
Description: The synthesis of the compounds of Formula I is provided in PCT/US2011/021982, which is incorporated herein by reference in its entirety. The synthesis of compounds of Formula II is provided in PCT/US2011/060791, which is incorporated herein by reference in its entirety. The synthesis of the compounds of Formula III is provided in U.S. Pat. Nos. 5,635,517; 6,281,230; 6,335,349; and 6,476,052; and in International Patent Application No. PCT/US97/013375, each of which is incorporated herein by reference in its entirety.

H929 = assay: Expression profiling with Affymetrix […] microarrays, number of differentially regulated genes; format: cell-based, human; conditions: pomalidomide 1 μM
Description: as §5

Structure (SMILES): O=C(CCCCCCNC(=O)c1cnc(N(c2ccccc2)c2ccccc2)nc1)NO [Compound A, 2-(diphenylamino)-N-(7-(hydroxyamino)-7-oxoheptyl)pyrimidine-5-carboxamide]
- apoptosis (H929 cells): small increase in apoptosis
- apoptosis (MM.1s myeloma cells [1]): small increase in apoptosis
- cell cycle distribution (H929 myeloma cells): small reduction of cells undergoing division in S phase
- cell cycle distribution (MM.1s myeloma cells [2]): small reduction of cells undergoing division in S phase
- inhibition of HDAC6: acetylation of α-tubulin (α-tubulin): hyperacetylation of α-tubulin
- Normalized Enrichment Score (NES), interferon regulated genes [3]: 2.72
- Normalized Enrichment Score (NES), myc targets (myc target genes): −2.23
- XAF1 expression (XAF1): consistent dose-dependent induction
- CCL4 expression (CCL4): consistent dose-dependent induction
- CASP1 expression (CASP1): consistent dose-dependent effect
- BIRC5 expression (BIRC5): consistent dose-dependent effect
- safety and tolerability profile [4]: improved safety and tolerability profile
- synergy with bortezomib (preclinical models of MM): synergizes in vitro and in vivo with bortezomib

Structure (SMILES): O=C(CCCCCCNC(=O)c1cnc(N(c2ccccc2)c2ccccc2Cl)nc1)NO [Compound B, 2-((2-chlorophenyl)(phenyl)amino)-N-(7-(hydroxyamino)-7-oxoheptyl)pyrimidine-5-carboxamide]
- tolerability, body weight [5]: very well tolerated with no weight loss and no evidence of overt toxicity

Structure (SMILES): O=C(NO)c1cnc(NC2(c3cccc(F)c3)CCCCC2)nc1 [Compound C, 2-((1-(3-fluorophenyl)cyclohexyl)amino)-N-hydroxypyrimidine-5-carboxamide]
- selective for HDAC6 over class I HDACs (HDAC6): more than 300 fold

Structure (SMILES): Nc1cccc2c1C(=O)N(C1CCC(=O)NC1=O)C2=O (stereo not shown) [pomalidomide, reference compound]
- tolerability, body weight [5]: very well tolerated with no weight loss and no evidence of overt toxicity
- number of genes with fold expression changes greater than 2 relative to vehicle: Down (H929; 24 h): 531
- number of genes with fold expression changes greater than 2 relative to vehicle: Total (H929; 24 h): 979
- number of genes with fold expression changes greater than 2 relative to vehicle: Up (H929; 24 h): 448
- number of genes with fold expression changes greater than 2 relative to vehicle: Down (H929; 48 h): 865
- number of genes with fold expression changes greater than 2 relative to vehicle: Total (H929; 48 h): 1905
- number of genes with fold expression changes greater than 2 relative to vehicle: Up (H929; 48 h): 1040
- Normalized Enrichment Score (NES), interferon regulated genes [3]: 2.87
- Normalized Enrichment Score (NES), myc targets (myc target genes): −1.97
- XAF1 expression (XAF1): small induction
- CCL4 expression (CCL4): small induction
- CASP1 expression (CASP1): relatively small change
- BIRC5 expression (BIRC5): relatively small change
